{"source": "patent US20090176817A1", "about": "“Method of Treatment of Diarrhea-Predominant Irritable Bowel Syndrome in a Subject” (priority 2005, published 2009)", "key": {"clinical [1]": {"experiment": "clinical", "details": "male, human, in vivo; for CL renal: CLr; for half-life: T½", "protocol": "Subjects were randomized to receive cilansetron 8 mg IV solution (30-minute infusion), cilansetron 8 mg oral solution, and a cilansetron 8 mg capsule during the three treatment periods, with a 23-day washout between periods. All doses were administered under fasted conditions. […] Table 2.7.1.2.3 presents descriptive statistics for the pharmacokinetic parameters of cilansetron capsule and oral solution, and the results of statistical comparisons between treatments (capsule versus solution). […] Median Tmax was also similar between the capsule and oral solution.\nSubjects were randomized to receive cilansetron 8 mg IV solution (30-minute infusion), cilansetron 8 mg oral solution, and a cilansetron 8 mg capsule during the three treatment periods, with a 23-day washout between periods. All doses were administered under fasted conditions. […] Its low bioavailability, complete absorption from the GI tract, and its 4.5- to 5-fold higher apparent oral clearance in comparison to systemic clearance indicate that cilansetron is a high extraction drug and undergoes significant first pass metabolism on oral administration. Intersubject % CVs were higher for oral (47-73%) than for IV administration (19-20%), reflecting increased variability due to oral absorption. Intrasubject % CVs ranged from 37-47% following oral and IV administration.\nCilansetron concentrations in this study were also modeled using a standard 2-compartment model for the IV data and a 1-compartment model for the oral data (using TOPFIT 2.0). The results from modeling are compared to the results obtained from non-compartmental analysis in Table 2.7.2.3.10 below, for the oral and IV solution. The results obtained by the two methods are very similar."}, "clinical [2]": {"experiment": "clinical", "details": "human, in vivo", "protocol": "The single- and multiple-dose pharmacokinetics of cilansetron at oral doses of 4 mg and 8 mg were evaluated in a randomized, double-blind, placebo controlled, parallel group study in 32 male subjects (14 subjects received 4 mg cilansetron, 14 received 8 mg cilansetron, and 4 received placebo). Subjects received a single dose of cilansetron at their assigned dose on the first day of the study (Day 1), followed by a 7-day washout, after which they received cilansetron TID at their assigned dose for 6 days and a single dose on the morning of the seventh day (Day 14). Morning doses on all days were administered under fasted conditions. […] Renal excretion of cilansetron was negligible following single and multiple dosing at both doses, with less than 1% of the dose excreted unchanged in urine."}, "clinical [3]": {"experiment": "clinical", "details": "both, human, in vivo", "description": "Diurnal variations in cilansetron pharmacokinetics have been evaluated in a randomized, double-blind, placebo-controlled, 2-way crossover study in 9 male and 9 female healthy subjects, aged 21 to 39 years. Subjects were randomized to receive 2 treatments (cilansetron 16 mg tablet and placebo) during the 2 treatment periods. During each treatment period, subjects received a single dose of their assigned treatment on the first day (Day 1), after which they received the same treatment TID for 4 days (Days 2-5). There was a 10-day washout period between treatment periods. Subjects were fasted for at least 2 hours before and following each dose, and heavy physical activity was restricted. Serial blood samples for the measurement of multiple-dose pharmacokinetics of cilansetron were collected up to 24 hours postdose on Day 5."}}}
{"compound": "Cc1nccn1C[C@H]1CCc2c(c3cccc4c3n2CCC4)C1=O", "note": "[Cilansetron, (R)-(−)-4,5,6,8,9,10-hexahydro-10-[(2-methyl-1H-imidazol-1-yl)methyl]-11H-pyrido-[3,2,1-jk]-carbazol-11-one]", "values": [{"measurement": "AUC(0-inf) ratio Oral Capsule/IV Soln", "setting": "clinical [1]", "value": "25 (19, 32) %"}, {"measurement": "AUC(0-inf) ratio Oral Soln/IV Soln", "setting": "clinical [1]", "value": "26 (20, 34) %"}, {"measurement": "AUC(0-last) ratio Oral Capsule/IV Soln", "setting": "clinical [1]", "value": "23 (18, 31) %"}, {"measurement": "AUC(0-last) ratio Oral Soln/IV Soln", "setting": "clinical [1]", "value": "24 (18, 32) %"}, {"measurement": "Intrasubject % CV", "setting": "clinical [1]", "value": "37-47%"}, {"measurement": "% Dose (urine)", "setting": "clinical [1]; iv", "value": "0.41 (96) %"}, {"measurement": "AUC(0-inf)", "setting": "clinical [1]; iv", "value": "222 (42) ng · h/mL"}, {"measurement": "CL", "setting": "clinical [1]; iv", "value": "619 (108) mL/min"}, {"measurement": "Intersubject % CV", "setting": "clinical [1]; iv", "value": "19-20%"}, {"measurement": "T½", "setting": "clinical [1]; iv", "value": "1.33 (0.32) h"}, {"measurement": "Vss", "setting": "clinical [1]; iv", "value": "58 (11) L"}, {"measurement": "AUC(0-inf)", "setting": "clinical [1]; iv, 8 mg, AUC(0-inf)", "value": 234, "unit": "ng·h/mL"}, {"measurement": "AUC(0-t)", "setting": "clinical [1]; iv, 8 mg, AUC(0-last)", "value": 228, "unit": "ng·h/mL"}, {"measurement": "clearance", "setting": "clinical [1]; iv, 8 mg, CL", "value": 590, "unit": "mL/min"}, {"measurement": "CL renal", "setting": "clinical [1]; iv, 8 mg", "value": 2.3, "unit": "mL/min"}, {"measurement": "clearance", "setting": "clinical [1]; iv, 8 mg, Systemic plasma clearance", "value": "~600", "unit": "mL/min"}, {"measurement": "half-life", "setting": "clinical [1]; iv, 8 mg", "value": 1.33, "unit": "h"}, {"measurement": "Vd", "setting": "clinical [1]; iv, 8 mg, Vss", "value": 55.6, "unit": "L"}, {"measurement": "Vd", "setting": "clinical [1]; iv, 8 mg, Vz", "value": 66.7, "unit": "L"}, {"measurement": "AUC(0-inf)", "setting": "clinical [1]; iv, AUC (0-inf)", "value": 234, "unit": "ng·h/mL"}, {"measurement": "clearance", "setting": "clinical [1]; iv, CL", "value": 590, "unit": "mL/min"}, {"measurement": "Cmax", "setting": "clinical [1]; iv, Cmax", "value": 149, "unit": "ng/mL"}, {"measurement": "Vd", "setting": "clinical [1]; iv, Steady-state volume of distribution (Vss)", "value": "~56", "unit": "L"}, {"measurement": "Tmax", "setting": "clinical [1]; iv, Tmax", "value": 0.55, "unit": "h"}, {"measurement": "half-life", "setting": "clinical [1]; iv", "value": 1.33, "unit": "h"}, {"measurement": "Vd", "setting": "clinical [1]; iv, Vss", "value": 56, "unit": "L"}, {"measurement": "AUC (0-inf) ratio capsule:oral solution", "setting": "clinical [1]; po", "value": 93, "unit": "%"}, {"measurement": "AUC (0-last) ratio capsule:oral solution", "setting": "clinical [1]; po", "value": 96, "unit": "%"}, {"measurement": "AUC(0-inf)", "setting": "clinical [1]; po", "value": "69 (49) ng · h/mL"}, {"measurement": "Apparent oral clearance higher than systemic clearance", "setting": "clinical [1]; po", "value": "4.5-5 fold"}, {"measurement": "Cmax", "setting": "clinical [1]; po", "value": "29 (18) ng/mL"}, {"measurement": "Cmax ratio capsule:oral solution", "setting": "clinical [1]; po", "value": 88, "unit": "%"}, {"measurement": "Intersubject % CV", "setting": "clinical [1]; po", "value": "47-73%"}, {"measurement": "Tmax", "setting": "clinical [1]; po", "value": "0.76 (0.40) h"}, {"measurement": "T½", "setting": "clinical [1]; po", "value": "1.14 (0.27) h"}, {"measurement": "bioavailability", "setting": "clinical [1]; po", "value": 25, "unit": "%"}, {"measurement": "AUC(0-inf)", "setting": "clinical [1]; po, 8 mg", "value": "73.8 (69) ng · h/mL"}, {"measurement": "AUC(0-last)", "setting": "clinical [1]; po, 8 mg", "value": "69.3 (73) ng · h/mL"}, {"measurement": "CLr", "setting": "clinical [1]; po, 8 mg", "value": "2.37 (95) mL/min"}, {"measurement": "Cmax", "setting": "clinical [1]; po, 8 mg", "value": "39.2 (67) ng/mL"}, {"measurement": "Tmax", "setting": "clinical [1]; po, 8 mg", "value": "0.83 (0.33, 1.25) h"}, {"measurement": "T½", "setting": "clinical [1]; po, 8 mg", "value": "1.47 (21) h"}, {"measurement": "Vz/F", "setting": "clinical [1]; po, 8 mg", "value": "308 (79) L"}, {"measurement": "AUC(0-inf)", "setting": "clinical [1]; po, 8 mg, AUC (0-inf)", "value": 66, "unit": "ng·h/mL"}, {"measurement": "AUC(0-t)", "setting": "clinical [1]; po, 8 mg, AUC (0-last)", "value": 62.1, "unit": "ng·h/mL"}, {"measurement": "CL renal", "setting": "clinical [1]; po, 8 mg", "value": 2.92, "unit": "mL/min"}, {"measurement": "Cmax", "setting": "clinical [1]; po, 8 mg, Cmax", "value": 31.4, "unit": "ng/mL"}, {"measurement": "Tmax", "setting": "clinical [1]; po, 8 mg, Tmax", "value": 1, "unit": "h"}, {"measurement": "half-life", "setting": "clinical [1]; po, 8 mg", "value": 1.28, "unit": "h"}, {"measurement": "Vd/F", "setting": "clinical [1]; po, 8 mg, Vz/F", "value": 342, "unit": "L"}, {"measurement": "AUC(0-inf)", "setting": "clinical [1]; po, AUC (0-inf)", "value": 74, "unit": "ng·h/mL"}, {"measurement": "Cmax", "setting": "clinical [1]; po, Cmax", "value": 39, "unit": "ng/mL"}, {"measurement": "Tmax", "setting": "clinical [1]; po, Tmax", "value": 0.76, "unit": "h"}, {"measurement": "half-life", "setting": "clinical [1]; po", "value": 1.47, "unit": "h"}, {"measurement": "CL/F", "setting": "clinical [2]; 4 mg", "value": "3226 (51) mL/min"}, {"measurement": "CL/F", "setting": "clinical [2]; 8 mg", "value": "3559 (62) mL/min"}, {"measurement": "Dose excreted unchanged in urine", "setting": "clinical [2]; male", "value": "less than 1%"}, {"measurement": "Intersubject % CV for AUC and Cmax", "setting": "clinical [2]; male", "value": "36-82%"}, {"measurement": "Intrasubject % CV on AUC", "setting": "clinical [2]; male", "value": "33-55%"}, {"measurement": "CLr", "setting": "clinical [2]; male, 4 mg", "value": "7.47 (143) mL/min"}, {"measurement": "DN-AUC", "setting": "clinical [2]; male, 4 mg", "value": "6.08 (36) ng · h/mL"}, {"measurement": "DN-Cmax", "setting": "clinical [2]; male, 4 mg", "value": "2.21 (37) ng/mL"}, {"measurement": "Vd/F", "setting": "clinical [2]; male, 4 mg", "value": 406, "unit": "L"}, {"measurement": "AUC", "setting": "clinical [2]; male, 4 mg", "value": 24.3, "unit": "ng·h/mL"}, {"measurement": "Cmax", "setting": "clinical [2]; male, 4 mg", "value": 8.83, "unit": "ng/mL"}, {"measurement": "Tmax", "setting": "clinical [2]; male, 4 mg", "value": 1.38, "unit": "h"}, {"measurement": "half-life", "setting": "clinical [2]; male, 4 mg, T½", "value": 1.55, "unit": "h"}, {"measurement": "DN-AUC", "setting": "clinical [2]; male, 8 mg", "value": "6.55 (69) ng · h/mL"}, {"measurement": "DN-Cmax", "setting": "clinical [2]; male, 8 mg", "value": "2.89 (61) ng/mL"}, {"measurement": "Vd/F", "setting": "clinical [2]; male, 8 mg", "value": 483, "unit": "L"}, {"measurement": "AUC", "setting": "clinical [2]; male, 8 mg", "value": 52.4, "unit": "ng·h/mL"}, {"measurement": "CL renal", "setting": "clinical [2]; male, 8 mg, CLr", "value": 4.68, "unit": "mL/min"}, {"measurement": "Cmax", "setting": "clinical [2]; male, 8 mg", "value": 23.1, "unit": "ng/mL"}, {"measurement": "Tmax", "setting": "clinical [2]; male, 8 mg", "value": 1, "unit": "h"}, {"measurement": "half-life", "setting": "clinical [2]; male, 8 mg, T½", "value": 1.92, "unit": "h"}, {"measurement": "half-life", "setting": "clinical [2]; male, Mean half-life", "value": "1.6 to 1.9", "unit": "h"}, {"measurement": "Cmax", "setting": "clinical [3]; Cmax", "value": 76.9, "unit": "ng/mL"}, {"measurement": "Tmax", "setting": "clinical [3]; Tmax", "value": 1, "unit": "h"}]}
